Reference: ChEMBL document CHEMBL5316308, “BET-HDAC Dual Inhibitors for Combinational Treatment of Breast Cancer and Concurrent Candidiasis” (J Med Chem, 2023)
Values after ≈ are worked out from the molar mass of the structure shown. Active and inactive are the calls of the source. The calls are words filed in the database; no cut-off is given here.

What was measured:
[1] = molecular target: Bromodomain testis-specific protein (Homo sapiens, UniProt Q58F21); assay: Inhibition of recombinant BRDT BD1 (unknown origin) incubated for 120 mins by TR-FRET assay
[2] = tested on: MDA-MB-231; assay: Antiproliferative activity against human MDA-MB-231 cells assessed as cell growth inhibition incubated for 24 hrs by CCK-8 assay; assay type: functional, cell-based; settings: MDA-MB-231, 24 h
[3] = tested on: HL-60; assay: Antiproliferative activity against human HL-60 cells assessed as cell growth inhibition incubated for 24 hrs by CCK-8 assay; assay type: functional, cell-based; settings: HL-60, 24 h
[4] = tested on: MDA-MB-231; assay: Downregulation of c-Myc expression in human MDA-MB-231 cells incubated for 24 hrs by Western blot analysis; assay type: functional, cell-based; settings: dose 0.2-5 µM
[5] = molecular target: Bromodomain-containing protein 2 (Homo sapiens, UniProt P25440); assay: Inhibition of recombinant BRD2 BD1 (unknown origin) incubated for 120 mins by TR-FRET assay
[6] = tested on: MDA-MB-231; assay: Induction of apoptosis in human MDA-MB-231 cells incubated for 48 hrs by Annexin V-FITC/PI staining based flow cytometry; assay type: functional, cell-based; settings: dose 2.5-10 µM
[7] = molecular target: Histone deacetylase 3 (Homo sapiens, UniProt O15379); assay: Inhibition of His-tagged recombinant human HDAC3 expressed in baculovirus infected insect cells using Ac-Leu-Gly-Lys(Ac)-AMC as substrate incubated for 30 mins by fluorescence based assay; set-up: species or system Insect cell
[8] = molecular target: Histone deacetylase 2 (Homo sapiens, UniProt Q92769); assay: Inhibition of C-terminal GST-tagged full-length recombinant human HDAC2 expressed in baculovirus infected Sf9 insect cells using Ac-Leu-Gly-Lys(Ac)-AMC as substrate incubated for 30 mins by fluorescence based assay; assay type: cell-based
[9] = tested on: MDA-MB-231; assay: Antitumor activity against human MDA-MB-231 cells xenografted in Balb/c nude mouse assessed as tumor growth inhibition at 10 mg/kg, ip qd for 21 consecutive days relative to control; assay type: functional; settings: MDA-MB-231, 480 h, time 20 day, read-out: TGI
[10] = Metabolic stability in ICR mouse liver microsome assessed as clearance; assay type: ADME; settings: liver microsomes, read-out: CLH
[11] = tested on: Candida albicans; assay: Antifungal activity FLC-resistant Candida albicans 0304103 assessed as hyphal formation at 32 ug/ml incubated for 3 hrs by inverse fluorescent microscopy; assay type: functional, organism-based; settings: dose 32.0 µg/ml
[12] = molecular target: T1, Bromodomain-containing protein 4 (Homo sapiens, UniProt O60885); assay: Inhibition of recombinant BRD4 (unknown origin) incubated for 120 mins by TR-FRET assay relative to control; set-up: concentration or dose not given beside the values
[13] = molecular target: T1, Bromodomain-containing protein 4; assay: Inhibition of recombinant BRD4 (unknown origin) incubated for 120 mins by TR-FRET assay
[14] = tested on: Candida albicans; assay: microbe, parasite or virus in culture; assay type: functional; settings: 0304103, time 48 hrs
Description: Synergistic antifungal activity against azole-resistant Candida albicans 0304103 assessed as fungal growth inhibition measured after 48 hrs by CLSI based micro-dilution broth method

[15] = tested on: Candida albicans; assay: microbe, parasite or virus in culture; assay type: functional; settings: 0304103, time 48 hrs; remark: listed apart in the source
Description: Synergistic antifungal activity against azole-resistant Candida albicans 0304103 assessed as fungal growth inhibition measured after 48 hrs in presence of FLC by CLSI based micro-dilution broth method

[16] = tested on: Candida albicans; assay: Synergistic antifungal activity against Candida albicans 0304103 infected in ICR mouse assessed as decrease in kidney fungal load at 10 to 20 mg/kg, ip for 5 consecutive days; assay type: functional, organism-based; settings: dose 10-20 mg/kg, time 5.0 day
[17] = tested on: HEL; assay: Antiproliferative activity against human HEL cells assessed as cell growth inhibition incubated for 24 hrs by CCK-8 assay; assay type: functional, cell-based
[18] = tested on: Cryptococcus neoformans; assay: Antifungal activity against Cryptococcus neoformans H99 assessed as fungal growth inhibition measured after 48 hrs by CLSI based micro-dilution broth method; assay type: functional
[19] = tested on: Candida albicans; assay: Synergistic antifungal activity against azole-resistant Candida albicans 0304103 assessed as fungal growth inhibition at 32 ug/ml measured upto 24 hrs in presence of 1 to 4 ug/ml FLC by absorbance based assay; assay type: functional, organism-based; settings: dose 32.0 µg/ml
[20] = molecular target: Histone deacetylase 1 (Homo sapiens, UniProt Q13547); assay: Inhibition of full-length recombinant human HDAC1 (1 to 482 residues) expressed in baculovirus infected insect cells using Ac-Leu-Gly-Lys(Ac)-AMC as substrate incubated for 30 mins by fluorescence based assay; set-up: species or system Insect cell
[21] = molecular target: T2, Histone deacetylase 8 (Homo sapiens, UniProt Q9BY41); assay: Inhibition of C-terminal His-tagged full-length recombinant human HDAC8 expressed in baculovirus infected Sf9 insect cells using Ac-Leu-Gly-Lys(Tfa)-AMC as substrate incubated for 30 mins by fluorescence based assay
T2 sequence (Q9BY41 whole entry): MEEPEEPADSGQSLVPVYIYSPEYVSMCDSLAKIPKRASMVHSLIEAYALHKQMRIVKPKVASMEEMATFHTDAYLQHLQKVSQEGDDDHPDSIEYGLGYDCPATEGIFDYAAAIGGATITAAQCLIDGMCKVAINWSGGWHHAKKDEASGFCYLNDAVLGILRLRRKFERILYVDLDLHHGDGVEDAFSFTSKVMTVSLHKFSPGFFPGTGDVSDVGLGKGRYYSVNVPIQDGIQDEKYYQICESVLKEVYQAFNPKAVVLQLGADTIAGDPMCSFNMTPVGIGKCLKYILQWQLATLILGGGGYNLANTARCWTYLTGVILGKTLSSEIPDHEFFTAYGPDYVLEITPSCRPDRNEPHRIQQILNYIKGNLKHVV

Histone deacetylase 3, sequence (O15379 whole entry): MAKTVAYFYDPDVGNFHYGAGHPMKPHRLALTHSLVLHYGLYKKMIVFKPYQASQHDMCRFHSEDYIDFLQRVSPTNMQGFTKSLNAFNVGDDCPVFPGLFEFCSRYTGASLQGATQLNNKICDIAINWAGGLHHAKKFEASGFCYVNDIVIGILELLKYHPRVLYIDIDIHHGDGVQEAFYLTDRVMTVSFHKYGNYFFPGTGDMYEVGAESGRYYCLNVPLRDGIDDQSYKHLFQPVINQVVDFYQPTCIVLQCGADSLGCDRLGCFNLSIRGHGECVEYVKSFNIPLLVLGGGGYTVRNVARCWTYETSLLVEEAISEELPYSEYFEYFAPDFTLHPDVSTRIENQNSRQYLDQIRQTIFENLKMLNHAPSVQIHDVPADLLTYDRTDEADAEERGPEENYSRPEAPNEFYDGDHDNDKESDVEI
Histone deacetylase 1, sequence (Q13547 whole entry, the tested form may be a part): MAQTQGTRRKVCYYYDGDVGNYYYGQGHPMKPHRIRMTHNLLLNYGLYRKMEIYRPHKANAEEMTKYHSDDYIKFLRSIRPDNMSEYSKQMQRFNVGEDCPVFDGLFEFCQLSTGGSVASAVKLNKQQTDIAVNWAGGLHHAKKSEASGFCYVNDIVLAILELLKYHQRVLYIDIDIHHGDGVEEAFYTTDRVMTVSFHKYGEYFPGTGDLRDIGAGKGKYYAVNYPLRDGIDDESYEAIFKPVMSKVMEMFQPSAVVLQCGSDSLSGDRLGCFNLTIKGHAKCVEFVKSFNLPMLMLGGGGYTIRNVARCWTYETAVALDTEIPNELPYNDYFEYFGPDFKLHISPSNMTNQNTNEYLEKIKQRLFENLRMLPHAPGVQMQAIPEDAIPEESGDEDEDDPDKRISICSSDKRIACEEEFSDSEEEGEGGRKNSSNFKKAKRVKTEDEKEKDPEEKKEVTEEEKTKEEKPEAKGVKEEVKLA
Bromodomain-containing protein 2, sequence (P25440 whole entry): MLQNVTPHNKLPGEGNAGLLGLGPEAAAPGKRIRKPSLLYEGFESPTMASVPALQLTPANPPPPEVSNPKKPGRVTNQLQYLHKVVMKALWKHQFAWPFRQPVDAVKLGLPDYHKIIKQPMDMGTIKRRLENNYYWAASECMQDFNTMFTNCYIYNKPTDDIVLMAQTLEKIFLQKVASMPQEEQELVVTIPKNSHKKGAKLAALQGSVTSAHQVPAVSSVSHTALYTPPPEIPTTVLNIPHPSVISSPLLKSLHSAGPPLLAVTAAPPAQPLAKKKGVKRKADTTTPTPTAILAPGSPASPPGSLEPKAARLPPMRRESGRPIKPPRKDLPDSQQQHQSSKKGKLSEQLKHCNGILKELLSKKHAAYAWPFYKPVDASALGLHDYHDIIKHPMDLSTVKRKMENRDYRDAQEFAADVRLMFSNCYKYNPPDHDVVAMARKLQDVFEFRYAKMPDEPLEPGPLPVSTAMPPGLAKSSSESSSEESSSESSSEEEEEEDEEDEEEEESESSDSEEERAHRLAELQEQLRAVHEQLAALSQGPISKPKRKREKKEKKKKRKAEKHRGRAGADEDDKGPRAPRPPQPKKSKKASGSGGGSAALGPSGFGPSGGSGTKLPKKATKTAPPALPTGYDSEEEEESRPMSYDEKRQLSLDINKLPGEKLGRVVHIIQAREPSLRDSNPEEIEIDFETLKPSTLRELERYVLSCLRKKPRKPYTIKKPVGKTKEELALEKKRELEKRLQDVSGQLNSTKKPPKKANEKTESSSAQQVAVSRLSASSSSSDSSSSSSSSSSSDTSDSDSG
Histone deacetylase 2, sequence (Q92769 whole entry): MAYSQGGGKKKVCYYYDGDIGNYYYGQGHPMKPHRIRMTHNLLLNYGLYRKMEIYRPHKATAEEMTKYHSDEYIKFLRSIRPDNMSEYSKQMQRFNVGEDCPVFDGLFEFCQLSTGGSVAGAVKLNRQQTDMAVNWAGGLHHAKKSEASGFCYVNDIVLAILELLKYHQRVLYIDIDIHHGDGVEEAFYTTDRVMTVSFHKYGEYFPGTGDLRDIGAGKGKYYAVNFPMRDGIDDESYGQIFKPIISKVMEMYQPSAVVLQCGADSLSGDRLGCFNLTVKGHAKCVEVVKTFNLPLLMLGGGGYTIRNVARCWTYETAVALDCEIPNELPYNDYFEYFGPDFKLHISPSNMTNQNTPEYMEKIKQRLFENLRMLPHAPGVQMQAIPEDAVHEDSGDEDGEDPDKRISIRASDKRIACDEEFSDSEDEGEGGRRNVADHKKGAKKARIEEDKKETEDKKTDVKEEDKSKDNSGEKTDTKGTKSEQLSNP

COc1cc2c(cc1-c1c(C)noc1C)[nH]c1ncnc(NCCCCCCC(=O)NO)c12
IC50 [1]: 221 nM
IC50 [2]: 500 nM
IC50 [3]: 1200 nM
Activity [4]: Dose-Dependent Effect
IC50 [5]: 174 nM
Activity [6]: Dose-Dependent Effect
IC50 [7]: 161 nM
IC50 [8]: 152 nM
inhibition in vivo at 10 mg/kg [9]: 64.9%
CLint scaled [10]: 103 mL/min/kg
Activity [11]: Active
inhibition [12]: 93.7%
IC50 [13]: 35 nM
MIC80 [14]: > 64 µg/mL
MIC80 [15]: 0.5 µg/mL (≈ 1.1 µM)
Activity [16]: Active
IC50 [17]: 3900 nM
MIC80 [18]: 8 µg/mL (≈ 17.7 µM)
Activity [19]: Active
IC50 [20]: 10 nM
IC50 [21]: 784 nM

COc1cc2c(cc1-c1c(C)noc1C)[nH]c1nc(C)nc(NCCCCCCC(=O)NO)c12
IC50 [1]: 1110 nM
IC50 [2]: 1000 nM
IC50 [3]: 1900 nM
Activity [4]: Dose-Dependent Effect
IC50 [5]: 2010 nM
Activity [6]: Dose-Dependent Effect
IC50 [7]: 213 nM
IC50 [8]: 85 nM
inhibition in vivo at 10 mg/kg [9]: 67.9%
CLint scaled [10]: 285 mL/min/kg
Activity [11]: Active
inhibition [12]: 91.7%
IC50 [13]: 63 nM
MIC80 [14]: > 64 µg/mL
MIC80 [15]: 8 µg/mL (≈ 17.1 µM)
Activity [16]: Active
IC50 [17]: 900 nM
MIC80 [18]: 8 µg/mL (≈ 17.1 µM)
Activity [19]: Active
IC50 [20]: 19 nM
IC50 [21]: 782 nM
